`Cc1ccc2c(c1)C(NC(=O)CN1CCCCC1)CO2` (centres undefined) gave a logP of 2.78. For `Cc1ccc2c(c1)C(NC(=O)CN1CCOCC1)CO2` (centres undefined), the logP was 1.38. Compound `O=C(CN1CCCCC1)NC1COc2ccc(Cl)cc21` (centres undefined) has a logP of 3.01. Work on `O=C(CN1CCCCC1)NC1COc2ccccc21` (centres undefined) yielded a logP of 2.3. With `Cc1ccc2c(c1)C(NC(=O)CN1CCCC1)CO2` (centres undefined) the logP was 2.24. `O=C(CN1CCOCC1)NC1COc2ccccc21` (centres undefined) gave a logP of 0.81. Work on `CCCCN(CCCC)CC(=O)NC1COc2ccc(Cl)cc21` (centres undefined) yielded a logP of 4.44. Work on `O=C(CN1CCOCC1)NC1COc2ccc(Cl)cc21` (centres undefined) yielded a logP of 1.55. `O=C(CN1CCCC1)NC1COc2ccccc21` (centres undefined) gave a logP of 1.76. In the case of `CCN(CC)CC(=O)NC1COc2ccccc21` (centres undefined), the logP was 2.2. In the case of `CCCCN(CCCC)CC(=O)NC1COc2ccc(C)cc21` (centres undefined), the logP was 4.43. In the case of `CCCCN(CCCC)CC(=O)NC1COc2cc(OC)ccc21` (centres undefined), the logP was 4.24. For `COc1ccc2c(c1)OCC2NC(=O)CN1CCCCC1` (centres undefined), the logP was 2.41. For `O=C(CN1CCCC1)NC1COc2ccc(Cl)cc21` (centres undefined), the logP was 2.47. `COc1ccc2c(c1)OCC2NC(=O)CN1CCCC1` (centres undefined) gave a logP of 1.92. `CCN(CC)CC(=O)NC1COc2ccc(Cl)cc21` (centres undefined) gave a logP of 2.88. `COc1ccc2c(c1)OCC2NC(=O)CN1CCOCC1` (centres undefined) gave a logP of 0.92. In the case of `CCCCN(CCCC)CC(=O)NC1COc2ccccc21` (centres undefined), the logP was 4.15. Work on `CCN(CC)CC(=O)NC1COc2ccc(C)cc21` (centres undefined) yielded a logP of 2.69.

Reference: the OPERA property sets (Mansouri et al. 2018)
